# Reference: US9504660B2, “Retinaldehyde mimetics and inhibitors of retinaldehyde dehydrogenase I in the treatment of disorders” (THE BRIGHAM AND WOMEN'S HOSPITAL, INC., priority 2012, dated 2016)
# pEC50: −log10 of the molar value.
# Legend:
# [1] = system: RXRa ligand binding domain (LBD); experiment: Cell-free TR-FRET assay, PGC-1a recruitment to RXRa LBD; type: biochemical
# [2] = system: retinoic acid response element (RARE) luciferase reporter; experiment: RARE luciferase reporter in undifferentiated 10T1/2 cells; type: cell-based, murine; conditions: 24 h, concentration-dependent
# Experimental: (§1) Cell lysates were harvested 48 h post transfection and luciferase activity quantified by standard luminometer assay and normalized to 3-galactosidase.
# [3] = system: RAR; conditions: ligand displacement assays, reference 37; cited from earlier work
# [4] = system: UCP-1 promoter; experiment: UCP-1 promoter luciferase reporter in undifferentiated 10T1/2 cells; type: cell-based, murine; conditions: 24 h, increasing concentrations / 1 pM
# Experimental: as §1
# [5] = Core body temperature under ambient and cold-induced conditions in ASO-treated mice; type: in vivo; conditions: versus Ctrl ASO-treated mice
# Experimental: (§2) An ASO targeting murine Aldh1a1 and a control ASO not hybridizing to any known murine RNA sequences were synthesized and purified by Isis Pharmaceuticals Inc. (Carlsbad, Calif.) as described previously^39. In vitro characterization including knockdown validation of the Aldh1a1 ASO was done in murine primary hepatocytes. ASOs (70 mg/kg/wk) were administered via intraperitoneal (i.p.) injection twice weekly.
# Core body temperature was assessed in mice as before^49,41. WT and Aldh1a1^−/− mice (12 week old, n=6/group) were anesthetized (Ketamine/Xylazine/Acepromazine, 100/10/3 mg/kg i.p.) and a telemetric temperature probe (E-mitter, MiniMitter, Bend, Oreg.) was implanted intra-abdominally. One week after surgery, mice were single-housed in open-circuit Oxymax chambers as part of the Comprehensive Lab Animal Monitoring System (CLAMS; Columbus Instruments, Columbus, Ohio)^42. Oxymax chambers were kept in a temperature enclosure with 12 h light/dark cycles at 23° C. and mice had ad-libitum access to food and water. After a 48 h acclimatization phase, core body temperature was recorded every 10 min for 48 h at ambient temperature (23° C.), followed by 48 h cold stimulation (4° C.). After sacrifice, fat depots were dissected and analyzed.
# [6] = system: UCP-1; experiment: UCP-1 expression in fat depots of ASO-treated C57Bl/6J mice; type: in vivo; conditions: chow-fed mice, i.p. 35 mg/kg/dose twice a week for 6 weeks
# Experimental: (§3) Aldh1a1-deficient (Aldh1a1^4″) mice were backcrossed to a C57BL/6J background (>20 generations). Mice were kept on a standard chow diet with a Vitamin A content of 15 IU/g or on high-fat diet (60% kcal fat, Research Diets, New Brunswick, N.J.) as indicated. Mice had free access to food and water except as indicated under Harvard Medical School Institutional Animal Care and Use Committee guidelines. Experiments were conducted using 12-14 week old female mice unless otherwise indicated.
# as §2
# (§4) Total RNA was extracted (RNeasy, Qiagen, Hi[den, Germany), DNase-treated (Qiagen), and reverse-transcribed to cDNA. Gene expression, normalized to 36B4, was analyzed by quantitative real-time RT-PCR (Sybr Green, 96 well plates) using a MyiQ cycler (Bio-Rad, Hercules, Calif.). […]
# Homogenized tissue was lysed in RIPA buffer (Boston Bioproducts, Ashland, Mass.) containing protease and phosphatase inhibitors. […] Proteins were detected by chemiluminescence (GE HealthCare Amersham, Amersham, UK).
# [7] = Established diet-induced obesity in high-fat diet fed C57Bl/6J mice, body weight and fat depot mass; type: in vivo; conditions: HFD 8 weeks before treatment, continued HFD additional 9 weeks, compared to control ASO
# Experimental: as §3, §2
# [8] = Glucose and insulin tolerance tests in high-fat diet fed obese mice; type: in vivo; conditions: HFD obese mice, compared to control ASO
# Experimental: as §2
# Glucose (GTT) and insulin tolerance tests (ITT) were performed on mice after fasting (12 h and 6 h, respectively). Mice were injected i.p. either with D-glucose (Sigma, 0.75 g/kg body weight) or recombinant human regular insulin (0.5 U/kg body weight, Humulin R, Eli Lilly, Indianapolis, Ind.); blood glucose concentrations were measured periodically up to 120 min by glucometer (Abbott Laboratories, Abbott Park, Ill.).
# [9] = system: Aldh1a1; experiment: Aldh1a1 expression in tissues of ASO-treated C57Bl/6J mice; type: in vivo
# Experimental: as §3, §2
# (§5) Total RNA was extracted (RNeasy, Qiagen, Hi[den, Germany), DNase-treated (Qiagen), and reverse-transcribed to cDNA. Gene expression, normalized to 36B4, was analyzed by quantitative real-time RT-PCR (Sybr Green, 96 well plates) using a MyiQ cycler (Bio-Rad, Hercules, Calif.). Primer sequences are available upon request.
# Homogenized tissue was lysed in RIPA buffer (Boston Bioproducts, Ashland, Mass.) containing protease and phosphatase inhibitors. Standard Western blotting was performed using rabbit polyclonal antibody against UCP-1, rabbit monoclonal antibody against Aldh1a1 (both Abcam, Cambridge, UK), GAPDH and f3-Tubulin (both Santa Cruz Biotechnology). Proteins were detected by chemiluminescence (GE HealthCare Amersham, Amersham, UK).
# [10] = system: RXR; experiment: 9cisRA-induced Cyp26a1 expression in 10T1/2 cells; type: cell-based, murine; conditions: data not shown
# Experimental: (§6) C3H10T1/2, isolated human stromal-vascular cells and Aldh1a1^−/− MEFs were cultured and differentiated as previously described^8. Briefly, cells were grown to confluence in DMEM, 10% fetal bovine serum (FBS) and 1% penicillin/streptomycin followed by standard adipogenic induction (20 nM insulin, 1 nM T3, 0.5 mM isobutylmethylxanthine, […], 0.125 mM indomethacin) and stimulation with retinoids, retinoid antagonists or vehicle (DMSO) as indicated. After a 48 h induction phase, growth media was supplemented with insulin, T3, and indicated retinoids which were changed every other day up to day 6.
# as §5
# [11] = system: UCP-1; experiment: UCP-1 gene expression in 10T1/2 cells during adipogenic differentiation; type: cell-based, murine; conditions: for effect on Rald-mediated UCP-1 expression: antagonist with Rald
# Experimental: as §6, §5
# [12] = target: T1, RARa ligand binding domain (LBD) (Homo sapiens, UniProt P10276); experiment: Cell-free TR-FRET assay, PGC-1a recruitment to RARa LBD; type: biochemical
# T1 construct: purchased Invitrogen
# T1 sequence (P10276 183-417 limits assumed): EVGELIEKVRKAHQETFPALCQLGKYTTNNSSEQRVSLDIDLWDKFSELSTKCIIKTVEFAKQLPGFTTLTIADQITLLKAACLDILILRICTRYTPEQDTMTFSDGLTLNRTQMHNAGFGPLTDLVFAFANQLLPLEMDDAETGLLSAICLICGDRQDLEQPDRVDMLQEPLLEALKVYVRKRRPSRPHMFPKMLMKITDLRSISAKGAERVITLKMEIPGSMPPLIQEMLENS
# Experimental: Lanthascreen” TR-FRET RARa and RXR13 coactivator assays (Invitrogen) were performed as per manufacturer protocol using a PerkinElmer (Waltham, Mass.) EnVision™ fluorescence plate reader.
# [13] = system: UCP-1 promoter region; experiment: Chromatin immunoprecipitation (ChIP) at the UCP-1 promoter region in 10T1/2 cells; type: cell-based, mouse
# Experimental: ChIP was performed in Rald versus vehicle stimulated C3H10T1/2 adipocytes using EZ-Magna ChIP™ kit following manufacturer's instructions (Millipore, Billerica, Mass.) and RARa, PGC-1a, or rabbit lgG antibodies as a negative control (all Santa Cruz). lmmunoprecipitated DNA was amplified by real-time PCR using primers specific for the mouse UCP-1 promoter region. Relative PGC-la and RARa occupancy at the UCP-1 promoter was determined normalized to input DNA
# [14] = system: 3T3-L1 cells; conditions: reference 16; cited from earlier work
# [15] = system: UCP-1; experiment: UCP-1 mRNA in shAldh1a1-transfected 10T1/2 cells; type: cell-based, murine; conditions: Rald stimulation (1 pM) in shAldh1a1-treated 10T1/2 cells
# Experimental: as §6
# Mission® shRNA constructs targeting Aldh1a1 and a non-targeting control shRNA were purchased from Sigma. To generate lentivirus particles, shRNA constructs were transfected into HEK293TN cells (SA Biosciences, Frederick, Md.) along with the packaging vectors psPAX and pM2DG. After 72 h, virus-containing supernatant was precipitated using polyethylene glycol (SA Biosciences) and concentrated in PBS (30×). […]
# as §4
# [16] = system: UCP-1; experiment: UCP-1 gene expression in Aldh1a1-/- mouse embryonic fibroblast (MEF)-derived adipocytes; type: cell-based; conditions: stimulation 24 h, versus vehicle-treated cells
# Experimental: (§7) Abdominal subcutaneous fat biopsies were obtained from a subject undergoing gastric bypass surgery who gave written informed consent. Fat biopsies were immediately washed with phosphate buffered saline (PBS), minced, and digested (1 mg/mi collagenase, 45 min, 37° C.) in DMEM containing 1% BSA. Digested tissues were filtered through sterile 150 µm nylon mesh and centrifuged (250 g, 5 min). The floating fractions containing adipocytes were discarded and they stromal-vascular fraction pellet was resuspended in erythrocyte lysis buffer (154 mM NH4CI, 10 mM KHCO3, 0.1 mM EDTA, 10 min) to remove red blood cells. The cells were further centrifuged at 500 g for 5 min, plated on a 24-well culture dish and grown, and differentiated to mature adipocytes as described below. MEFs were isolated from Aldh1a1^−/− embryos at embryonic day 14.5 using standard tech niques^43.
# (§8) C3H10T1/2, isolated human stromal-vascular cells and Aldh1a1^−/− MEFs were cultured and differentiated as previously described^8. […]
# as §4
# [17] = system: UCP-1; experiment: UCP-1 expression in differentiating human stromal-vascular cells from subcutaneous fat biopsies; type: cell-based; conditions: 1 pM during differentiation
# Experimental: as §7, §8, §4
# [18] = chow-fed mice, i.p. 35 mg/kg/dose twice a week for 6 weeks, compared to Ctrl ASO
# [19] = each 1 pM, differentiating 10T1/2 cells
# [20] = 1 pM during adipogenic differentiation
compound,measurement,setting,value
"CC1=C(/C=C/C(C)=C\C=C\C(C)=C\C(=O)O)C(C)(C)CCC1 [9cisRA, reference compound]",PGC-1a recruitment to RXRa,[1],potently recruited
"CC1=C(/C=C/C(C)=C/C=C/C(C)=C/C(=O)O)C(C)(C)CCC1 [ATRA, all-trans RA, reference compound]",activity of a canonical RARE luciferase reporter,[2],significantly increased
CC1=C(/C=C/C(C)=C/C=C/C(C)=C/CO)C(C)(C)CCC1 [retinol],binding to RAR,[3],can bind
same,UCP-1 promoter luciferase activity,[4],not and failed to induce
"Aldh1a1 ASO: ASO targeting murine Aldh1a1, synthesized by Isis Pharmaceuticals; sequence AACACGACTATGCTGGTTAC (SEQ ID NO: 01) (listed as DNA, chemistry not given here)",core body temperature on cold exposure,"[5]; 4° C., 48 h",protected significantly
same,core body temperature at ambient temperature,[5]; 23° C.,did not differ
same,UCP-1 expression in GWAT,[6],significantly increased
same,UCP-1 expression in SWAT or BAT (significant increase),[6],not
same,GWAT mass,[7],decreased
same,weight gain in obese mice,[7],significantly limited
same,glucose tolerance,[8],improved
same,insulin tolerance,[8],improved
same,Aldh1a1 expression in subcutaneous WAT,[9]; administered systemically,no effect
same,Aldh1a1 expression in visceral WAT,[9]; administered systemically,decrease
same,"Aldh1a1 expression in SWAT, BAT, spleen, intestine, and skeletal muscle",[9]; [18],remained unchanged
same,Aldh1a1 mRNA and protein levels in liver and GWAT,[9]; [18],significantly decreased
"CN1c2ccc([N+](=O)[O-])cc2N=C(c2ccc(C(=O)O)cc2)c2cc3c(cc21)C(C)(C)CCC3(C)C [HX531, reference compound]",9cisRA-induced expression of the RA target gene Cyp26a1,[10],significantly inhibit
same,effect on Rald-mediated UCP-1 expression,[11]; [19],did not alter
"CC1=C(/C=C/C(C)=C/C=C/C(C)=C/C=O)C(C)(C)CCC1 [Rald, all trans-Retinal]",binding to RAR,[3],can bind
same,pEC50,[12],7.09
same,PGC-1a recruitment to RARa,[12],effectively recruited
same,PGC-1a recruitment to RXRa,[1],virtually no effect
same,"PGC-1a occupancy at the UCP-1 promoter region, enrichment",[13]; Rald 1 pM during adipocyte differentiation,5 fold
same,RARa signal at the UCP-1 promoter,"[13]; after stimulation, versus basal conditions",did not increase further
same,activity of a canonical RARE luciferase reporter,[2],significantly increased
same,"expression of other BAT markers including PGC-16, PRDM16, and Cidea",[11]; [20],induced
same,expression of the adipogenic gene aP2,[11]; [20],remained unaltered
same,UCP-1 expression induction,[11]; 1 pM during adipogenic differentiation of 10T1/2 cells (white adipocytes),100 fold
same,UCP-1 expression,"[11]; co-stimulation with the Aldh inhibitor DEAB, each 1 pM, differentiating 10T1/2 cells",to the same extent as Rald alone
same,adipogenesis in 3T3-L1 cells,[14],inhibitor
same,UCP-1 mRNA expression increase,[15],100 fold
same,UCP-1 gene expression increase,[16],40 fold
same,UCP-1 promoter luciferase activity,[4],increased
same,UCP-1 expression,[17],significantly increased
"Cc1ccc(C2=CCC(C)(C)c3ccc(C#Cc4ccc(C(=O)O)cc4)cc32)cc1 [AGN193109, reference compound]",effect on Rald-mediated UCP-1 expression,[11]; [19],completely inhibited
